As a reminder, the IC50 is the concentration that gives 50% inhibition.

Among the data in US8613914B2, “Peptidomimetic sulfamide compounds and antiviral uses thereof” (Novartis AG, priority 2009, dated 2013) are IC50 values, retold here.

SMILES strings stand for the structures.

This assay deals with HCV NS3-4A serine protease (full-length NS3-4A protein) (Hepatitis C virus genotype 1a (isolate 1) (HCV), UniProt P26664). Nature of the assay: HCV NS3-4A protease assay. The format is biochemical, HCV genotype 1a. Particulars: strain HCV-1, fluorogenic peptide substrate, read-out: Protease assay Ex. 12 IC50. As to the method: The inhibitory activity of certain compounds of Table A against HCV NS3-4A serine protease is determined in a homogenous assay using the full-length NS3-4A protein (genotype 1a, strain HCV-1) and a commercially available internally-quenched fluorogenic peptide substrate as described by Taliani, M., et al. 1996 Anal. Biochem. 240:60-67, which is incorporated by reference in its entirety.
HCV NS3-4A serine protease (full-length NS3-4A protein), sequence (P26664 1027-1657): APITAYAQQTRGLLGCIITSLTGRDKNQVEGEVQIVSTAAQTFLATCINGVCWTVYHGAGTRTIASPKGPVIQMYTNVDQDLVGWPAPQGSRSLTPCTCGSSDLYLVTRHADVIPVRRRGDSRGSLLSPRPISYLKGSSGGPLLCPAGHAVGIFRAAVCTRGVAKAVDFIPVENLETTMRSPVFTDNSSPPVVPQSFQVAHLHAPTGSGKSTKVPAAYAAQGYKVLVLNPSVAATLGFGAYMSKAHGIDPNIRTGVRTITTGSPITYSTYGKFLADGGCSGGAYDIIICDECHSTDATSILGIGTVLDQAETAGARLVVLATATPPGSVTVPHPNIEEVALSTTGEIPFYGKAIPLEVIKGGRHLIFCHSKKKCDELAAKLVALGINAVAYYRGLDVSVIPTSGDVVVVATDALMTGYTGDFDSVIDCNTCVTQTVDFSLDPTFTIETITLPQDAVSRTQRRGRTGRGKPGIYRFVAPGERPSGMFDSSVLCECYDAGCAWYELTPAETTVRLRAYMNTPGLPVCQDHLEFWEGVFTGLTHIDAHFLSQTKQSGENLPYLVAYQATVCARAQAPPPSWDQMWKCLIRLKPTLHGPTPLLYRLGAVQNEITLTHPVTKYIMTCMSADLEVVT
HCV NS3-4A serine protease (full-length NS3-4A protein), sequence (P26664 1658-1711 partner): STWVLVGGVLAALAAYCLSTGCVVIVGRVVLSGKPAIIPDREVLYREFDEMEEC
Take `C=C[C@@H]1C[C@]1(NC(=O)[C@@H]1C[C@@]2(CN1C(=O)[C@@H](NC(=O)[C@@H](NC(=O)[C@@H]1CCCN1CC)C1(C)CCCCC1)C1(C)CCOCC1)C(C)(C)C21CCC1)C(=O)NS(=O)(=O)N1CCCC1` [Compound 146, (5R,8S)-7-[(2S)-2-{[(2S)-2-({[(2S)-1-ethylpyrrolidin-2-yl]carbonyl}amino)-2-(1-methylcyclohexyl)acetyl]amino}-2-(4-methyltetrahydro-2H-pyran-4-yl)acetyl]-10,10-dimethyl-N-{(1R,2S)-1-[(pyrrolidin-1-ylsulfonyl)carbamoyl]-2-vinylcyclopropyl}-7-azadispiro[3.0.4.1]decane-8-carboxamide]: the IC50 stood at 3 nM.

As for `C=C[C@@H]1C[C@]1(NC(=O)[C@@H]1C[C@@]2(CN1C(=O)[C@@H](NC(=O)[C@@H](NC(=O)[C@@H]1CCCCN1C(C)C)C1(C)CCCCC1)C1(C)CCOCC1)C(C)(C)C21CCC1)C(=O)NS(=O)(=O)N1CCCC1` [Compound 147, (5R,8S)-7-[(2S)-2-{[(2S)-2-({[(2S)-1-isopropylpiperidin-2-yl]carbonyl}amino)-2-(1-methylcyclohexyl)acetyl]amino}-2-(4-methyltetrahydro-2H-pyran-4-yl)acetyl]-10,10-dimethyl-N-{(1R,2S)-1-[(pyrrolidin-1-ylsulfonyl)carbamoyl]-2-vinylcyclopropyl}-7-azadispiro[3.0.4.1]decane-8-carboxamide], the IC50 amounted to 1.5 nM. To `[2H]C([2H])([2H])N(C([2H])([2H])[2H])S(=O)(=O)NC(=O)[C@@]1(NC(=O)[C@@H]2C[C@@]3(CN2C(=O)[C@@H](NC(=O)[C@@H](NC(=O)[C@@H]2CCCCN2C(C)C)C2CCCCC2)C(C)(C)C)C(C)(C)C32CCC2)C[C@H]1C=C` [Compound 148, (5R,8S)-7-[(2S)-2-{[(2S)-2-cyclohexyl-2-({[(2S)-1-isopropylpiperidin-2-yl]carbonyl}amino)acetyl]amino}-3,3-dimethylbutanoyl]-N-[(1R,2S)-1-{[(d6-dimethylamino)sulfonyl]carbamoyl}-2-vinylcyclopropyl]-10,10-dimethyl-7-azadispiro[3.0.4.1]decane-8-carboxamide-d6] belongs 0.8 nM; to `[2H]C([2H])([2H])C([2H])([2H])N(C([2H])([2H])C([2H])([2H])[2H])S(=O)(=O)NC(=O)[C@@]1(NC(=O)[C@@H]2C[C@@]3(CN2C(=O)[C@@H](NC(=O)[C@@H](NC(=O)[C@@H]2CCCCN2C(C)C)C2CCCCC2)C(C)(C)C)C(C)(C)C32CCC2)C[C@H]1C=C` [Compound 149, (5R,8S)-7-[(2S)-2-{[(2S)-2-cyclohexyl-2-({[(2S)-1-isopropylpiperidin-2-yl]carbonyl}amino)acetyl]amino}-3,3-dimethylbutanoyl]-N-[(1R,2S)-1-{[(d10-diethylamino)sulfonyl]carbamoyl}-2-vinylcyclopropyl]-10,10-dimethyl-7-azadispiro[3.0.4.1]decane-8-carboxamide-d10], 1.5 nM; to `C=C[C@@H]1C[C@]1(NC(=O)[C@@H]1C[C@@]2(CN1C(=O)[C@@H](NC(=O)[C@@H](NC(=O)[C@@H]1CCCCN1C(C)C)C1CCCCC1)C1(C)CCOCC1)C(C)(C)C21CCC1)C(=O)NS(=O)(=O)N(CC)CC` [Compound 150, (5R,8S)-7-[(2S)-2-{[(2S)-2-cyclohexyl-2-({[(2S)-1-isopropylpiperidin-2-yl]carbonyl}amino)acetyl]amino}-2-(4-methyltetrahydro-2H-pyran-4-yl)acetyl]-N-[(1R,2S)-1-{[(diethylamino)sulfonyl]carbamoyl}-2-vinylcyclopropyl]-10,10-dimethyl-7-azadispiro[3.0.4.1]decane-8-carboxamide], 2.4 nM.
